Test results taken from US20180292376A1, “DIFFUSION CELL TESTING METHODS CONTAINING BIPHASIC RECEPTOR FLUIDS” (BUFFERAD Illinois Inc. d/b/a Zyleris PharmaTech, Inc., priority 2017, published 2018).
Several values for one entry are separate records, joined by “and”; a condition that tells them apart may be missing. Equal entries are not always repeated.

Test: In vitro release testing (IVRT), static vertical diffusion cell, synthetic membrane, UV-VIS analysis
Type: physicochemical
Conditions: for amount of xylene cyanol released into the water phase / release of Xylene Cyanol into the receptor fluid: ointment
Description: In Vitro Release Testing Method.
Release of pharmaceutically active compounds from semi-solid dosage forms was evaluated in an in vitro model of static vertical diffusion cell using a synthetic membrane model. […] The samples were analyzed using a UV-VIS spectrometer. […]
Test time points: 0, 2, 4, 6, 8, and 10 hours. Each test was conducted in four replicates (N=4). Square root of test time points: 0, 1.41, 2.00, 2.45, 2.83, and 3.16.
Membrane: Polypropylene (pore size: 0.45 micron).
Static vertical diffusion cell parameters: Area of the membrane diffusion area: 0.95 square centimeters.
Dosing level: infinite dose at about 3.0 milliliter of the semi-solid dosage form.
Static vertical diffusion cell consists of a donor and receptor compartment separated by a synthetic membrane. The dosing compartment was for the dosed semi-solid dosage form. […] Before dosing, the diffusion cell was pre-incubated at 32° C. for about 20 to 45 minutes. The t=0 samples were taken after the incubation period prior to dosing.
During the experiment, the receptor fluid was in intimate contact with the membrane through a mixing mechanism, such as, e.g., magnetic stirring bar, or orbit shaker, and maintained at 32° C. using a heating mechanism, such as, e.g., dry heat block, or circulating water bath. At each time point, entire content of the receptor fluid was collected and replaced with a fresh batch pre-incubated at 32° C.
An ointment dosage form was prepared as an example of the semi-solid dosage form. Petrolatum was heated to about 50 to 70° C. while mixing. Xylene Cyanol was added to the heated petrolatum while heating and mixing. The mixture was mixed until uniform. Then, the mixture was slowly cooled to room temperature while mixing to yield the ointment formulation.

Compound: CCN=C1C=CC(=C(c2ccc(NCC)c(C)c2)c2ccc(S(=O)(=O)[O-])cc2S(=O)(=O)O)C=C1C.[Na+] [Xylene Cyanol]
- amount of xylene cyanol released (0.5% Xylene Cyanol in Petrolatum, infinite dose, biphasic receptor fluid: 1-Octanol:H2O 1:1 v:v, square root of time (hr) 0.00 (0 h, prior to dosing)): 0.0000 mcg/cm2
- amount of xylene cyanol released (0.5% Xylene Cyanol in Petrolatum, infinite dose, biphasic receptor fluid: 1-Octanol:H2O 1:1 v:v, square root of time (hr) 2.00 (4 h)): 1.2143 mcg/cm2 and 1.9575 mcg/cm2 and 1.4206 mcg/cm2 and 1.4438 mcg/cm2
- amount of xylene cyanol released (0.5% Xylene Cyanol in Petrolatum, infinite dose, biphasic receptor fluid: 1-Octanol:H2O 1:1 v:v, square root of time (hr) 2.45 (6 h)): 2.2025 mcg/cm2 and 3.0973 mcg/cm2 and 2.5204 mcg/cm2 and 2.5436 mcg/cm2
- amount of xylene cyanol released (0.5% Xylene Cyanol in Petrolatum, infinite dose, biphasic receptor fluid: 1-Octanol:H2O 1:1 v:v, square root of time (hr) 2.83 (8 h)): 3.1044 mcg/cm2 and 4.1192 mcg/cm2 and 3.3865 mcg/cm2 and 3.7213 mcg/cm2
- amount of xylene cyanol released (0.5% Xylene Cyanol in Petrolatum, infinite dose, biphasic receptor fluid: 1-Octanol:H2O 1:1 v:v, square root of time (hr) 3.16 (10 h)): 3.8674 mcg/cm2 and 4.8589 mcg/cm2 and 4.2884 mcg/cm2 and 4.5853 mcg/cm2
- amount of xylene cyanol released (0.5% Xylene Cyanol in Petrolatum, infinite dose, biphasic receptor fluid: 1-Octanol:PBS Buffer pH 7.4 1:1 v:v, square root of time 0.00 (0 h, prior to dosing)): 0.0000 mcg/cm2
- amount of xylene cyanol released (0.5% Xylene Cyanol in Petrolatum, infinite dose, biphasic receptor fluid: 1-Octanol:PBS Buffer pH 7.4 1:1 v:v, square root of time 2.00 (4 h)): 0.3389 mcg/cm2 and 0.4105 mcg/cm2 and 0.5179 mcg/cm2 and 0.4295 mcg/cm2
- amount of xylene cyanol released (0.5% Xylene Cyanol in Petrolatum, infinite dose, biphasic receptor fluid: 1-Octanol:PBS Buffer pH 7.4 1:1 v:v, square root of time 2.45 (6 h)): 1.2295 mcg/cm2 and 1.3179 mcg/cm2 and 0.8863 mcg/cm2 and 0.9032 mcg/cm2
- amount of xylene cyanol released (0.5% Xylene Cyanol in Petrolatum, infinite dose, biphasic receptor fluid: 1-Octanol:PBS Buffer pH 7.4 1:1 v:v, square root of time 2.83 (8 h)): 1.3579 mcg/cm2 and 1.8147 mcg/cm2 and 1.4400 mcg/cm2 and 1.5937 mcg/cm2
- amount of xylene cyanol released (0.5% Xylene Cyanol in Petrolatum, infinite dose, biphasic receptor fluid: 1-Octanol:PBS Buffer pH 7.4 1:1 v:v, square root of time 3.16 (10 h)): 1.8884 mcg/cm2 and 2.4316 mcg/cm2 and 1.7305 mcg/cm2 and 1.9768 mcg/cm2
- Slope - Average (0.5% Xylene Cyanol in Petrolatum, infinite dose, receptor fluid: 1-Octanol:H2O 1:1 v:v, N=4 runs): 2.2026 mcg/cm2/h^0.5
- Slope - Average (0.5% Xylene Cyanol in Petrolatum, infinite dose, receptor fluid: 1-Octanol:PBS Buffer pH 7.4 1:1 v:v): 1.0412 mcg/cm2/h^0.5
- amount of xylene cyanol released (0.5% Xylene Cyanol in Petrolatum, infinite dose, receptor fluid: 1-Octanol, square root of time (hr) 0.00 (0 h, prior to dosing)): BDL
- amount of xylene cyanol released (0.5% Xylene Cyanol in Petrolatum, infinite dose, receptor fluid: 1-Octanol, square root of time (hr) 1.41 (2 h)): BDL
- amount of xylene cyanol released (0.5% Xylene Cyanol in Petrolatum, infinite dose, receptor fluid: 1-Octanol, square root of time (hr) 2.00 (4 h)): BDL
- amount of xylene cyanol released (0.5% Xylene Cyanol in Petrolatum, infinite dose, receptor fluid: 1-Octanol, square root of time (hr) 2.45 (6 h)): BDL
- amount of xylene cyanol released (0.5% Xylene Cyanol in Petrolatum, infinite dose, receptor fluid: 1-Octanol, square root of time (hr) 2.83 (8 h)): BDL
- amount of xylene cyanol released (0.5% Xylene Cyanol in Petrolatum, infinite dose, receptor fluid: 1-Octanol, square root of time (hr) 3.16 (10 h)): BDL
- amount of xylene cyanol released (0.5% Xylene Cyanol in Petrolatum, infinite dose, receptor fluid: 1-octanol:ethanol 50:50 v:v, square root of time (hr) 0.00 (0 h, prior to dosing)): BDL
- amount of xylene cyanol released (0.5% Xylene Cyanol in Petrolatum, infinite dose, receptor fluid: 1-octanol:ethanol 50:50 v:v, square root of time (hr) 1.41 (2 h)): BDL
- amount of xylene cyanol released (0.5% Xylene Cyanol in Petrolatum, infinite dose, receptor fluid: 1-octanol:ethanol 50:50 v:v, square root of time (hr) 2.00 (4 h)): BDL
- amount of xylene cyanol released (0.5% Xylene Cyanol in Petrolatum, infinite dose, receptor fluid: 1-octanol:ethanol 50:50 v:v, square root of time (hr) 2.45 (6 h)): BDL
- amount of xylene cyanol released (0.5% Xylene Cyanol in Petrolatum, infinite dose, receptor fluid: 1-octanol:ethanol 50:50 v:v, square root of time (hr) 2.83 (8 h)): BDL
- amount of xylene cyanol released (0.5% Xylene Cyanol in Petrolatum, infinite dose, receptor fluid: 1-octanol:ethanol 50:50 v:v, square root of time (hr) 3.16 (10 h)): BDL
- amount of xylene cyanol released (0.5% Xylene Cyanol in Petrolatum, infinite dose, receptor fluid: Isopropyl alcohol:water 50:50 v:v, square root of time (hr) 0.00 (0 h, prior to dosing)): BDL
- amount of xylene cyanol released (0.5% Xylene Cyanol in Petrolatum, infinite dose, receptor fluid: Isopropyl alcohol:water 50:50 v:v, square root of time (hr) 1.41 (2 h)): BDL
- amount of xylene cyanol released (0.5% Xylene Cyanol in Petrolatum, infinite dose, receptor fluid: Isopropyl alcohol:water 50:50 v:v, square root of time (hr) 2.00 (4 h)): BDL
- amount of xylene cyanol released (0.5% Xylene Cyanol in Petrolatum, infinite dose, receptor fluid: Isopropyl alcohol:water 50:50 v:v, square root of time (hr) 2.45 (6 h)): BDL
- amount of xylene cyanol released (0.5% Xylene Cyanol in Petrolatum, infinite dose, receptor fluid: Isopropyl alcohol:water 50:50 v:v, square root of time (hr) 2.83 (8 h)): BDL
- amount of xylene cyanol released (0.5% Xylene Cyanol in Petrolatum, infinite dose, receptor fluid: Isopropyl alcohol:water 50:50 v:v, square root of time (hr) 3.16 (10 h)): BDL
- amount of xylene cyanol released (0.5% Xylene Cyanol in Petrolatum, infinite dose, receptor fluid: dimethyl sulfoxide:ethanol 50:50 v:v, square root of time (hr) 0.00 (0 h, prior to dosing)): BDL
- amount of xylene cyanol released (0.5% Xylene Cyanol in Petrolatum, infinite dose, receptor fluid: dimethyl sulfoxide:ethanol 50:50 v:v, square root of time (hr) 1.41 (2 h)): BDL
- amount of xylene cyanol released (0.5% Xylene Cyanol in Petrolatum, infinite dose, receptor fluid: dimethyl sulfoxide:ethanol 50:50 v:v, square root of time (hr) 2.00 (4 h)): BDL
- amount of xylene cyanol released (0.5% Xylene Cyanol in Petrolatum, infinite dose, receptor fluid: dimethyl sulfoxide:ethanol 50:50 v:v, square root of time (hr) 2.45 (6 h)): BDL
- amount of xylene cyanol released (0.5% Xylene Cyanol in Petrolatum, infinite dose, receptor fluid: dimethyl sulfoxide:ethanol 50:50 v:v, square root of time (hr) 2.83 (8 h)): BDL
- amount of xylene cyanol released (0.5% Xylene Cyanol in Petrolatum, infinite dose, receptor fluid: dimethyl sulfoxide:ethanol 50:50 v:v, square root of time (hr) 3.16 (10 h)): BDL
- amount of xylene cyanol released (0.5% Xylene Cyanol in Petrolatum, infinite dose, receptor fluid: dimethyl sulfoxide:isopropyl alcohol:water 30:30:40 v:v:v, square root of time (hr) 0.00 (0 h, prior to dosing)): BDL
- amount of xylene cyanol released (0.5% Xylene Cyanol in Petrolatum, infinite dose, receptor fluid: dimethyl sulfoxide:isopropyl alcohol:water 30:30:40 v:v:v, square root of time (hr) 1.41 (2 h)): BDL
- amount of xylene cyanol released (0.5% Xylene Cyanol in Petrolatum, infinite dose, receptor fluid: dimethyl sulfoxide:isopropyl alcohol:water 30:30:40 v:v:v, square root of time (hr) 2.00 (4 h)): BDL
- amount of xylene cyanol released (0.5% Xylene Cyanol in Petrolatum, infinite dose, receptor fluid: dimethyl sulfoxide:isopropyl alcohol:water 30:30:40 v:v:v, square root of time (hr) 2.45 (6 h)): BDL
- amount of xylene cyanol released (0.5% Xylene Cyanol in Petrolatum, infinite dose, receptor fluid: dimethyl sulfoxide:isopropyl alcohol:water 30:30:40 v:v:v, square root of time (hr) 2.83 (8 h)): BDL
- amount of xylene cyanol released (0.5% Xylene Cyanol in Petrolatum, infinite dose, receptor fluid: dimethyl sulfoxide:isopropyl alcohol:water 30:30:40 v:v:v, square root of time (hr) 3.16 (10 h)): BDL
- amount of xylene cyanol released (0.5% Xylene Cyanol in Petrolatum, infinite dose, receptor fluid: isopropyl alcohol, square root of time (hr) 0.00 (0 h, prior to dosing)): BDL
- amount of xylene cyanol released (0.5% Xylene Cyanol in Petrolatum, infinite dose, receptor fluid: isopropyl alcohol, square root of time (hr) 1.41 (2 h)): BDL
- amount of xylene cyanol released (0.5% Xylene Cyanol in Petrolatum, infinite dose, receptor fluid: isopropyl alcohol, square root of time (hr) 2.00 (4 h)): BDL
- amount of xylene cyanol released (0.5% Xylene Cyanol in Petrolatum, infinite dose, receptor fluid: isopropyl alcohol, square root of time (hr) 2.45 (6 h)): BDL
- amount of xylene cyanol released (0.5% Xylene Cyanol in Petrolatum, infinite dose, receptor fluid: isopropyl alcohol, square root of time (hr) 2.83 (8 h)): BDL
- amount of xylene cyanol released (0.5% Xylene Cyanol in Petrolatum, infinite dose, receptor fluid: isopropyl alcohol, square root of time (hr) 3.16 (10 h)): BDL
- Slope (release rate) (0.5% Xylene Cyanol in Petrolatum, infinite dose, receptor fluid: water, amount released vs square root of time): BDL
- amount of xylene cyanol released (0.5% Xylene Cyanol in Petrolatum, infinite dose, receptor fluid: water, square root of time (hr) 0.00 (0 h, prior to dosing)): BDL
- amount of xylene cyanol released (0.5% Xylene Cyanol in Petrolatum, infinite dose, receptor fluid: water, square root of time (hr) 1.41 (2 h)): BDL
- amount of xylene cyanol released (0.5% Xylene Cyanol in Petrolatum, infinite dose, receptor fluid: water, square root of time (hr) 2.00 (4 h)): BDL
- amount of xylene cyanol released (0.5% Xylene Cyanol in Petrolatum, infinite dose, receptor fluid: water, square root of time (hr) 2.45 (6 h)): BDL
- amount of xylene cyanol released (0.5% Xylene Cyanol in Petrolatum, infinite dose, receptor fluid: water, square root of time (hr) 2.83 (8 h)): BDL
- amount of xylene cyanol released (0.5% Xylene Cyanol in Petrolatum, infinite dose, receptor fluid: water, square root of time (hr) 3.16 (10 h)): BDL
- amount of xylene cyanol released into the water phase (biphasic receptor fluid 1-butanol:1-octanol:water 20:30:50 v:v:v): high amount
- amount of xylene cyanol released into the water phase (biphasic receptor fluid 1-hexanol:1-octanol:water 25:25:50 v:v:v): high amount
- amount of xylene cyanol released into the water phase (biphasic receptor fluid 1-hexanol:water 50:50 v:v): high amount
- amount of xylene cyanol released into the water phase (biphasic receptor fluid 1-octanol:PEG 400:water 40:20:40 v:v:v): higher amount
- amount of xylene cyanol released into the water phase (biphasic receptor fluid 1-octanol:ethanol:water 40:20:40 v:v:v): higher amount
- amount of xylene cyanol released into the water phase (biphasic receptor fluid 1-octanol:glycerin:water 40:20:40 v:v:v): higher amount
- amount of xylene cyanol released into the water phase (biphasic receptor fluid 1-octanol:isopropanol:water 40:20:40 v:v:v): higher amount
- amount of xylene cyanol released into the water phase (biphasic receptor fluid 1-octanol:propylene glycol:water 40:20:40 v:v:v): higher amount
- release of Xylene Cyanol into the receptor fluid (one-phase receptor fluid: 1-octanol): no release
- release of Xylene Cyanol into the receptor fluid (one-phase receptor fluid: 1-octanol:ethanol 50:50 v:v): no release
- release of Xylene Cyanol into the receptor fluid (one-phase receptor fluid: dimethyl sulfoxide:ethanol 50:50 v:v): no release
- release of Xylene Cyanol into the receptor fluid (one-phase receptor fluid: dimethyl sulfoxide:isopropyl alcohol:water 30:30:40 v:v:v): no release
- release of Xylene Cyanol into the receptor fluid (one-phase receptor fluid: isopropyl alcohol): no release
- release of Xylene Cyanol into the receptor fluid (one-phase receptor fluid: isopropyl alcohol:water 50 to 50 in volume): no release
- release of Xylene Cyanol into the receptor fluid (one-phase receptor fluid: water): no release
